From US20240210412A1, “SULFONYL-TRIAZOLE COMPOUNDS USEFUL AS LIGANDS AND INHIBITORS OF PROSTAGLANDIN REDUCTASE 2” (University of Virginia Patent Foundation, priority 2021, published 2024)

Target: T1, Q9UDY2 (Homo sapiens, UniProt Q9UDY2)
T1 construct: endogenous in cells; host or cells: DM93 cells (SILAC)
Experiment: SILAC LC-MS ABPP
Format: cell-based
Conditions: 25 μM 2 h, live DM93 cells
In short: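 DM93 SILAC cells, ligand 25 μM vs DMSO, 2 h; HHS-475 100 μM, 2 h; CuAAC desthiobiotin tag; 1:1 pool; trypsin; avidin enrichment; LC-MS/MS site quantification.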

T1 sequence (Q9UDY2 whole entry): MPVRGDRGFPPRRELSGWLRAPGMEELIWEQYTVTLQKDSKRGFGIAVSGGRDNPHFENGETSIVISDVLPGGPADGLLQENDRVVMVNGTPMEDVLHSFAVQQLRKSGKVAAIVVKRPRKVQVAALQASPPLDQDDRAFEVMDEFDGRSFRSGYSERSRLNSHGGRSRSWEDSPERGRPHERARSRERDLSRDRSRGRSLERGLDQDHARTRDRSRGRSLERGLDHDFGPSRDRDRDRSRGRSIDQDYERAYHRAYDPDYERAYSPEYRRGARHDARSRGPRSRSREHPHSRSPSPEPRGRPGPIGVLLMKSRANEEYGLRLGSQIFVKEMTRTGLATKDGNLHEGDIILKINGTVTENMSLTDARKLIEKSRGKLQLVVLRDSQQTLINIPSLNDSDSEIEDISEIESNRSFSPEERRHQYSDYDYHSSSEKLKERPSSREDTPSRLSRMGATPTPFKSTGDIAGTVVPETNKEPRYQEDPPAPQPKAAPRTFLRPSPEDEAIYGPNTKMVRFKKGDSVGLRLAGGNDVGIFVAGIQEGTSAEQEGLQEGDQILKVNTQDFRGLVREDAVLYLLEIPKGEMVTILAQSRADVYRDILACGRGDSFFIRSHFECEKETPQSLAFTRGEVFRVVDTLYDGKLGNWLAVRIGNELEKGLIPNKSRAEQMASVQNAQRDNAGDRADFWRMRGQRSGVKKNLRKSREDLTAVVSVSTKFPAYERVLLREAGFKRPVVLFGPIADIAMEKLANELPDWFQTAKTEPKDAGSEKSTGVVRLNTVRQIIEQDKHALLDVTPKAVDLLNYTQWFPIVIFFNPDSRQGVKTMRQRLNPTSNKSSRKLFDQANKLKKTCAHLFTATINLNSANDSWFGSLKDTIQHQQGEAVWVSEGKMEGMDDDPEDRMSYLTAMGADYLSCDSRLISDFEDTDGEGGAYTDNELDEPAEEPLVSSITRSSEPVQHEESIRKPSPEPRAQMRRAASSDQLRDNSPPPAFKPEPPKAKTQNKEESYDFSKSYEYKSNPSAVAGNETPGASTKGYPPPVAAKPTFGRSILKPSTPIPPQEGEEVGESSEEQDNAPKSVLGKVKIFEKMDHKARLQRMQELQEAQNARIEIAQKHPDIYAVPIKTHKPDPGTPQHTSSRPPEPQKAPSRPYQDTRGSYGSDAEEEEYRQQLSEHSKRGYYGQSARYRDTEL

## O=C(NCC1CC1)c1ccc(S(=O)(=O)n2cncn2)cc1 [HHS-0201, 4-((1H-1,2,4-triazol-1-yl)sulfonyl)-N-(cyclopropylmethyl)benzamide]
  liganded tyrosine site 423: HHS0201.Y|HHS0301.Y (tyrosine sites that showed >80% reductions (SR >5) in probe labeling in cells treated with compounds (liganded sites))
